# Test results reported in US20120295346A1, “METHODS AND COMPOSITIONS FOR MODULATING MEMBRANE POTENTIAL TO INFLUENCE CELL BEHAVIOR” (Tufts University, priority 2009, published 2012).
# “Also recorded” adds a separate entry of the source.
# Key:
# Xenopus embryos [1] = test: Ivermectin-induced hyper-pigmentation with blockers of voltage sensitive pathways; assay type: in vivo; settings: for effect on ivermectin-induced hyper-pigmentation: with 10 μM ivermectin, 0.1 mM cadmium chloride, 0.1 mM verapamil, 50 mM lindane, 20 mM fluoxetine
# Protocol: We next sought to examine how changes in membrane voltage are translated into downstream signaling. In order to determine the signaling molecules responding to ivermectin induced depolarization, we examined three known voltage sensitive pathways: calcium, serotonin, and gap junctions. We capitalized on the existence of drugs known to block each of these pathways to determine if any were downstream of ivermectin signaling.
# Embryos were exposed to 10 μM ivermectin from stage 10 throughout development. […] The following methods were used in conducting the experiments detailed above.
# (§1) Stocks of ivermectin (sigma) were kept at 10 mM concentration in DMSO. Embryo exposure occurred at a 1:1000 dilution (10 μM) in MMR for the stages indicated in each experiment. […] Stocks of strychnine were kept at 1 g in 6 ml of water; embryos were treated with 100 μl of stock in 10 ml of MMR. Drugs and media were replaced every 48 hours.
# Xenopus embryos [2] = test: Drug exposure of Xenopus embryos, hyper-pigmentation phenotype
# Text: Ivermectin is known to open vertebrate GlyCl channels, resulting in chloride flux through the membrane (Schonrock, B., and Bormann, J. (1993) Naunyn Schmiedebergs Arch Pharmacol 348, 628-632; Shan, Q., Haddrill, J. L., and Lynch, J. W. (2001) J Biol Chem 276, 12556-12564.).
# Xenopus embryos were collected according to standard protocols (Sive, Grainger et al. 2000) in 0.1× Modified Marc's Ringers (MMR) pH 7.8+0.1% Gentamycin. Xenopus embryos were staged according to Nieuwkoop and Faber 1967.
# as §1
# [3] = tested on: human epidermal melanocytes; test: Human melanocyte culture in high potassium media, proliferation and dendrite analysis; assay type: cell-based
# Text: After finding that Xenopus melanocytes responded to modulations in membrane potential, we examined human epidermal melanocytes to assess the impact of membrane depolarization on cell phenotype. For these studies, ivermectin could not be used to depolarize the membrane because the culture medium used to maintain the cells has a much higher chloride ion concentration then that observed intracellularly in these particular cells. Thus, membrane potential was modulated by raising the extracellular potassium concentration by addition of potassium gluconate to the media.
# Following two days of culture in 50 mM potassium gluconate supplemented media, human melanocytes developed a highly […] morphology, with a number of cells showing five or more such projections (compare FIGS. 6a and b). […] To verify that melanocytes grown in high potassium medium were in fact depolarized we made use of membrane voltage imaging using CC2-DMPE and DiBAC4 dyes, which allow visualization of the membrane potential (FIG. 6, d and e).
# Human melanocytes were obtained commercially and cultured in DermaLife M Melanocyte culture medium (Lifeline Cell Technology, Walkersville, Md.). Cells were maintained within standard 50 ml culture flasks (BD Bioscience, San Jose, Calif.), and were fed with 10 ml warm media every other day. Upon reaching confluence, melanocytes were passaged using a standard trypsonization protocol, and new colonies were seeded at approximately 5,000 cells per cm^2.
# For dendrite analysis, cells were imaged on a Nikon AZ100M stereo microscope and the numbers of dendrites on all cells within the field of vision were counted. Cell culture in high potassium media was repeated three times, and the results averaged for statistical analysis.
# human melanocytes = test: Imaging membrane voltage using CC2-DMPE and DiBAC4(3); assay type: cell-based; settings: high potassium media, CC2-DMPE and DiBAC4 dyes
# Protocol: CC2-DMPE (N-(6-chloro-7-hydroxycoumarin-3-carbonyl)-dimyristoylphosphatidyl ethanolamine), a coumarin phospholipid, and DiBAC4(3) (bis-(1,3-dibutylbarbituric acid) trimethine oxonol) were purchased from Invitrogen. Stock CC2-DMPE solution was prepared according to manufacturer directions; briefly, a 5 mM stock (in DMSO) was prepared, aliquoted, and stored at −20° C. until immediately before use. DiBAC4(3) stock (1.9 mM in DMSO) was prepared and stored at room temperature. CC2-DMPE stock was dissolved 1:1000 directly into DMEM. DiBAC4(3) stock was dissolved 1:2 in DMSO, then spun at rcf 20,800 for 10 minutes to remove undissolved particles of dye. Supernate was then diluted 1:4000 in DMEM. 1 mL of CC2-DMPE is added to cells grown in 35 mm FluoroDish Sterile Culture Dishes. Cells are incubated for 30 minutes, then washed twice with plain DMEM. 1-2 mLs of DiBAC4(3) are then added to the dish. Cells are incubated at least 30 minutes before imaging begins; cells are imaged while in the DiBAC4(3) bath. A round coverslip is dropped into the dish, and any medium outside the well is removed. […]
# An Olympus BX-61 equipped with a Hamamatsu ORCA AG CCD camera, and controlled by IPLabs, was used for imaging. […] No calibration was performed; nonetheless, pixel intensity within and among images can be compared for relative quantification. […]
# melanocytes = test: Melanocyte counts in ivermectin-exposed Xenopus embryos; assay type: in vivo
# Protocol: We examined whether there is a critical period of ivermectin exposure required for hyperpigmentation. […] One set of animals was exposed to 10 μM ivermectin from stages 10-24 (gastrulation through the completion of neurulation), while the second set were exposed from stages 28-46 (tailbud through tadpole). Early exposed embryos were washed 3× in 0.5×MMR post exposure and transferred to a new dish to remove all drug from the environment.
# In order to evaluate the number of melanocytes between treatments, early vs. late exposed embryos were anesthetized in tricane, and then photographed. We then counted the number of melanocytes within the eye region (FIG. 2A, B), and compared each treatment to age-matched control siblings. […] In comparison, embryos exposed to ivermectin during gastrulation and neurogenesis, the time when a subset of neural crest cells become fated to differentiate along a melanocyte fate, show a 1.5 fold increase in melanocyte number compared to controls (FIG. 2C).
# Melanocytes were counted by cellAnalyst software (AssaySoft, Inc) on digital photographs of anesthetized larvae. Adobe Illustrator (Adobe Systems Inc) was used to define the dorsal region between the eyes used for counting. Tail regions were defined using digital photographs, starting at the most posterior tip of the tail and counting all melanocytes within a 400 pixel square bounding box extending anteriorly.
# Xenopus embryos [4] = test: Ivermectin exposure in MMR with varying levels of chloride; assay type: in vivo; settings: for % hyper-pigmented / Hyper-pigmented (number of embryos) / Normal pigmentation (number of embryos): 10 μM ivermectin from stage 10
# Protocol: We next sought to determine whether the alteration of melanocyte behavior was due to GlyCl-dependent changes in transmembrane potential. The intracellular concentration of chloride in an embryo is approximately 60 mM while the extracellular concentration of Modified Marc's Ringers (MMR), the solution in which the embryos are maintained, is 10 mM. If ivermectin constitutively opens chloride channels, ivermectin treatment would be expected to cause an efflux of Cl^− ions, thus resulting in depolarization of the cell membrane. Conversely, if the concentration of external chloride were raised above intracellular levels, chloride ions would enter cells following treatment with ivermectin, thus maintaining a hyperpolarized membrane potential. To test this hypothesis, we raised the concentration of chloride in the extracellular MMR media to 30 mM, 60 mM, or 90 mM and examined the resulting phenotype following ivermectin exposure.
# Embryos were exposed to the chloride activator ivermectin (10 μM) from stage 10 throughout development in MMR containing varying levels of chloride.
# as §1
# [5] = older tadpoles (beyond stage 46) exposed to ivermectin
# [6] = 10 μM ivermectin from stage 10 throughout development, second drug concurrently
# [7] = ivermectin from gastrulation throughout development
compound,measurement,setting,value
[Cl][Cd][Cl] [cadmium chloride],effect on ivermectin-induced hyper-pigmentation,Xenopus embryos [1],did not result in any reduction; also recorded: did not inhibit hyper-pigmentation
CNCCC(Oc1ccc(C(F)(F)F)cc1)c1ccccc1 (stereo not shown) [fluoxetine],effect on ivermectin-induced hyper-pigmentation,Xenopus embryos [1],blocked ivermectin-induced hyper-pigmentation in all of the treated embryos; also recorded: completely inhibited
NCC(=O)O [glycine],hyper-pigmentation phenotype,"Xenopus embryos [2]; 3 mM glycine, exposure throughout development",induced the same hyperpigmented phenotype as ivermectin; also recorded: induces hyper-pigmentation at a similar level to ivermectin exposure
Cl[C@H]1[C@H](Cl)[C@@H](Cl)[C@@H](Cl)[C@H](Cl)[C@H]1Cl [lindane],effect on ivermectin-induced hyper-pigmentation,Xenopus embryos [1],did not result in any reduction
same,effect on ivermectin-induced hyper-pigmentation,Xenopus embryos [1]; listed as lindine,did not inhibit hyper-pigmentation
O=C([O-])[C@H](O)[C@@H](O)[C@H](O)[C@H](O)CO.[K+] [potassium gluconate],effect on growth in potassium dose response screen,[3]; 40 mM potassium gluconate,non-inhibitory to growth
same,"cell proliferation, standard vs high potassium media",[3]; 50 mM potassium gluconate supplemented media,No measurable differences in cell proliferation
same,dendricity / number of projections of melanocytes,"[3]; 50 mM potassium gluconate supplemented media, two days of culture",significant effect on the number of projections; also recorded: significant effect of potassium gluconate on dendricity
same,membrane potential of treated cells compared to controls,human melanocytes,depolarization
ivermectin,increase in melanocyte number in eye field relative to controls,"melanocytes; 10 μM ivermectin, early exposure stages 10-24",1.5 fold
same,melanocyte number in eye field relative to controls,"melanocytes; 10 μM ivermectin, late exposure stages 28-46, at stage 46",do not show a significant increase; also recorded: no detectible difference
same,increase in melanocyte counts in the tip of the tail,melanocytes; ivermectin throughout development,1.5 fold
same,generation of more melanocytes,melanocytes; [5],do not appear to generate more melanocytes
same,time to expansion of pigment cells,melanocytes; [5],≤ 24 h
same,incidence of hyper-pigmentation in words,Xenopus embryos [1]; 10 μM ivermectin alone,strong incidence of hyper-pigmentation
same,% hyper-pigmented,Xenopus embryos [1]; [6],95.3%
same,Hyper-pigmented tadpoles (number),Xenopus embryos [1]; [6],61
same,WT tadpoles (number),Xenopus embryos [1]; [6],3
same,melanocyte morphology compared to wild type siblings,Xenopus embryos [2]; [7],take on a dendritic morphology
same,other disruptions of normal development,Xenopus embryos [2]; [7],not accompanied by any other observable disruptions of normal development
same,treated embryos/larvae developing hyper-pigmentation,Xenopus embryos [2]; [7],98%
same,% hyper-pigmented,Xenopus embryos [4]; 10 mM Cl−,100%
same,Hyper-pigmented (number of embryos),Xenopus embryos [4]; 10 mM Cl−,25
same,Normal pigmentation (number of embryos),Xenopus embryos [4]; 10 mM Cl−,0
same,% hyper-pigmented,Xenopus embryos [4]; 30 mM Cl−,95.8%
same,Hyper-pigmented (number of embryos),Xenopus embryos [4]; 30 mM Cl−,23
same,Normal pigmentation (number of embryos),Xenopus embryos [4]; 30 mM Cl−,1
same,% hyper-pigmented,Xenopus embryos [4]; 60 mM Cl−,21.7%
same,Hyper-pigmented (number of embryos),Xenopus embryos [4]; 60 mM Cl−,5
same,Normal pigmentation (number of embryos),Xenopus embryos [4]; 60 mM Cl−,18
same,% hyper-pigmented,Xenopus embryos [4]; 90 mM Cl−,0%
same,Hyper-pigmented (number of embryos),Xenopus embryos [4]; 90 mM Cl−,0
same,Normal pigmentation (number of embryos),Xenopus embryos [4]; 90 mM Cl−,32
same,ivermectin hyper-pigmentation phenotype in words,Xenopus embryos [4]; extracellular chloride 10 mM,strong hyper-pigmentation
same,ivermectin hyper-pigmentation phenotype in words,Xenopus embryos [4]; extracellular chloride 30 mM,did not inhibit hyper-pigmentation; also recorded: strong hyper-pigmentation
same,ivermectin hyper-pigmentation phenotype in words,Xenopus embryos [4]; extracellular chloride 60 mM,suppressed; also recorded: partial inhibition
same,ivermectin hyper-pigmentation phenotype in words,Xenopus embryos [4]; extracellular chloride 90 mM,completely inhibited; also recorded: complete inhibition
